Assay [1] has as its target wild-type EZH2 (PRC2 enzyme) (Homo sapiens (Human), UniProt Q15910). Kind of assay: PRC2 enzyme assay on peptide substrate, wild-type EZH2 (H3K27me0 peptide, 3H-SAM Flashplate). The class given is biochemical. Conditions: wild-type PRC2 4 nM, read-out: WT EZH2 IC50.
Method: Human PRC2 enzymes were purified as 4-component enzyme complexes co-expressed in Spodoptera frugiperda (sf9) cells using a baculovirus expression system. […] The EED subunit contained an N-terminal FLAG tag that was used to purify the entire 4-component complex from sf9 cell lysates.
The assays were all performed in a buffer consisting of 20 mM bicine (pH=7.6), 0.5 mM DTT, 0.005% BSG and 0.002% Tween20, prepared on the day of use. […] DMSO (1 μL) was added to columns 11, 12, 23, 24, rows A-H for the maximum signal control, and SAH, a known product and inhibitor of PRC2 (1 μL) was added to columns 11, 12, 23, 24, rows I-P for the minimum signal control. A cocktail (40 μL) containing the wild-type PRC2 enzyme and H3K27me0 peptide or any of the Y641 mutant enzymes and H3K27me2 peptide was added by Multidrop Combi (Thermo). The compounds were allowed to incubate with PRC2 for 30 min at 25° C., then a cocktail (10 μL) containing a mixture of non-radioactive and ^3H-SAM was added to initiate the reaction (final volume=51 μL). […] The assays were stopped by the addition of non-radioactive SAM (10 μL) to a final concentration of 600 μM, which dilutes the ^3H-SAM to a level where its incorporation into the peptide substrate is no longer detectable. 50 of the reaction in the 384-well polypropylene plate was then transferred to a 384-well Flashplate and the biotinylated peptides were allowed to bind to the streptavidin surface for at least 1 h before being washed three times with 0.1% Tween20 in a Biotek ELx405 plate washer. The plates were then read in a PerkinElmer TopCount platereader to measure the quantity of ^3H-labeled peptide bound to the Flashplate surface, measured as disintegrations per minute (dpm) or alternatively, referred to as counts per minute (cpm).
Assay [2] addresses EZH2 Y641F mutant (PRC2 enzyme) (Homo sapiens (Human), UniProt Q15910, Y641F). Kind of assay: PRC2 enzyme assay on peptide substrate, EZH2 Y641F mutant (H3K27me2 peptide, 3H-SAM Flashplate). Conditions: Y641F mutant PRC2 4 nM. Format: biochemical.

Here are results for 17 molecules from patent US10150764B2, “Substituted benzene compounds” (Epizyme, Inc., priority 2013, dated 2018).

pIC50: −log10 of the molar value. Structures can show the parent of a compound that is named as a salt.

Chain of EZH2 Y641F mutant (PRC2 enzyme) (Q15910 whole entry Y641F): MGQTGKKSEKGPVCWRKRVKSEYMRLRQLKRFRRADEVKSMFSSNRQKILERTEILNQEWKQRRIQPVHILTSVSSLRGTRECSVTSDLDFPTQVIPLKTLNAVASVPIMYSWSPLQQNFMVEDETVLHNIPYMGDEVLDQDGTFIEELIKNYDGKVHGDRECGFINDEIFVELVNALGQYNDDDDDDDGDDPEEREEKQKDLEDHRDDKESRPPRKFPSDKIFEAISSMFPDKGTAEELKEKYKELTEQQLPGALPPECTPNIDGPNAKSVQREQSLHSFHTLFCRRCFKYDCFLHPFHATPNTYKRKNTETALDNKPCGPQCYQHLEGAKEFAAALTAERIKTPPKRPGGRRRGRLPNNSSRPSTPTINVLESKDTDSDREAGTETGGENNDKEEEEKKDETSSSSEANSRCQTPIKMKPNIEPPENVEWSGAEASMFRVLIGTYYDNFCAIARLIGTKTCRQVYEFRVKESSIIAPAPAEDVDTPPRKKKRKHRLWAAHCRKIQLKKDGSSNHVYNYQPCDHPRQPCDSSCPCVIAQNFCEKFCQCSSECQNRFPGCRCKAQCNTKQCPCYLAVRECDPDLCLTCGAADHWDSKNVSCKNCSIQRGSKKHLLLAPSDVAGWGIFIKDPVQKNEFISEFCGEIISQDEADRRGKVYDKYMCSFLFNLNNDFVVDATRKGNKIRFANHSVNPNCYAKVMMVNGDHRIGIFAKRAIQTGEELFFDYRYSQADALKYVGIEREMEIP
Chain of EZH2 Y641F mutant (PRC2 enzyme) (O75530 whole entry partner): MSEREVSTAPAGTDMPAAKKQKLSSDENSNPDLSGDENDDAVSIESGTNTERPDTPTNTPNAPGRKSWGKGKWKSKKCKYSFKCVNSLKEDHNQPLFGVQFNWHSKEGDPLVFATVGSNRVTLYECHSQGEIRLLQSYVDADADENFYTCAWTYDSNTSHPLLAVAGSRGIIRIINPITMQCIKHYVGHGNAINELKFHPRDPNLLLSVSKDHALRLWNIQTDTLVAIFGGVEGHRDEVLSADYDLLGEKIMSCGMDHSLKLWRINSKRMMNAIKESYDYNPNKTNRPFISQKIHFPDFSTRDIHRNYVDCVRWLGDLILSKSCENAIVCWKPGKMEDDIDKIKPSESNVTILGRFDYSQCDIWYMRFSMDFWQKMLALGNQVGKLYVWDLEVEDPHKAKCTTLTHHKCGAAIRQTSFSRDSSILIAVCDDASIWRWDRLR
Chain of EZH2 Y641F mutant (PRC2 enzyme) (Q15022 whole entry partner): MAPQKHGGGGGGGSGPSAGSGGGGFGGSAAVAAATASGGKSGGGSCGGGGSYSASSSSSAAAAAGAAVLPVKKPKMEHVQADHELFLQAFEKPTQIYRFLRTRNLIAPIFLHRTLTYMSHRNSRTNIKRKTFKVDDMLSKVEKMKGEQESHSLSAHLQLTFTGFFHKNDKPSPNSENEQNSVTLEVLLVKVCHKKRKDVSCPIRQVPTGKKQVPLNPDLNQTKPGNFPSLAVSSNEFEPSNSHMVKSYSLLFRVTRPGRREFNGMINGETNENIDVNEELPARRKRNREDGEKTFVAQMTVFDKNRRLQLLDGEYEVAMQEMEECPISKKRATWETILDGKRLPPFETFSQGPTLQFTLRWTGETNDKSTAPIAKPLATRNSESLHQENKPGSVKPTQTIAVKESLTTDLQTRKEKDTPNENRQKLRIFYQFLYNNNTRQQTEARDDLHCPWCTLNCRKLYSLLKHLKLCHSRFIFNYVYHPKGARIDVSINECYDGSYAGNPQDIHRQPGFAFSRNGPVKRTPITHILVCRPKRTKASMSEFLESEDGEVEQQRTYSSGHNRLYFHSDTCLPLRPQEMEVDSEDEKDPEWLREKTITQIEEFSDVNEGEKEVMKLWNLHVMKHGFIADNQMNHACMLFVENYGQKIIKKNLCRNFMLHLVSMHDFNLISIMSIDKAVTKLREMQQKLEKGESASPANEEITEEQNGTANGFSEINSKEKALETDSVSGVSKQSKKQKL
Chain of EZH2 Y641F mutant (PRC2 enzyme) (Q09028 whole entry partner): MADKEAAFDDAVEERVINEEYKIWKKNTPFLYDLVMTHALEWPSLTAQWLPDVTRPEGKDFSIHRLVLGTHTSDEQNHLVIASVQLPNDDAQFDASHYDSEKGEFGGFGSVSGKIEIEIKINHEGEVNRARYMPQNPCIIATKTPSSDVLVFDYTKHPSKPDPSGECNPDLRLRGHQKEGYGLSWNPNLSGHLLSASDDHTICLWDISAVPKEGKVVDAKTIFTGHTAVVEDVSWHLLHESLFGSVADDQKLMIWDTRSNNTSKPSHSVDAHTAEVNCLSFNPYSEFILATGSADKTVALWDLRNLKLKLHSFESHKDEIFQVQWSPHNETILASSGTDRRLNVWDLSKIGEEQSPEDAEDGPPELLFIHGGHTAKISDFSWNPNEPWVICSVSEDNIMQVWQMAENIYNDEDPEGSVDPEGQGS
Chain of wild-type EZH2 (PRC2 enzyme) (Q15910 whole entry): as the sequence (Q15910 whole entry Y641F) above, with F641Y counted along it
Chain of wild-type EZH2 (PRC2 enzyme) (O75530 whole entry partner): as the sequence (O75530 whole entry partner) above
Chain of wild-type EZH2 (PRC2 enzyme) (Q15022 whole entry partner): as the sequence (Q15022 whole entry partner) above
Chain of wild-type EZH2 (PRC2 enzyme) (Q09028 whole entry partner): as the sequence (Q09028 whole entry partner) above

By pIC50 is commonly meant −log10 of the IC50, conventionally taken in molar units. For the molecule `CCO[C@@H]1COC[C@H]1N(CC)c1cc(Cl)cc(C(=O)NCc2c(C)[nH]n(C)c2=O)c1C` (relative stereo) [Compound 43, 5-chloro-N-((2,5-dimethyl-3-oxo-2,3-dihydro-1H-pyrazol-4-yl)methyl)-3-(((trans)-4-ethoxytetrahydrofuran-3-yl)(ethyl)amino)-2-methylbenzamide], the pIC50 in assay [1] and in assay [2] was under 4.30 in each case.
With `CCN(c1cc(Cl)cc(C(=O)NCc2c(C)nn(C)c2OC)c1C)[C@@H]1COC[C@H]1OCCOC` (relative stereo) [Compound 44, 5-chloro-3-(ethyl((trans)-4-(2-methoxyethoxy)tetrahydrofuran-3-yl)amino)-N-((5-methoxy-1,3-dimethyl-1H-pyrazol-4-yl)methyl)-2-methylbenzamide], the pIC50 in assay [1] was under 4.30.
For the molecule `CCN(c1cc(Cl)cc(C(=O)NCc2c(C)[nH]n(C)c2=O)c1C)[C@@H]1COC[C@H]1OCCOC` (relative stereo) [Compound 45, 5-chloro-N-((2,5-dimethyl-3-oxo-2,3-dihydro-1H-pyrazol-4-yl)methyl)-3-(ethyl((trans)-4-(2-methoxyethoxy)tetrahydrofuran-3-yl)amino)-2-methylbenzamide], the pIC50 in assay [1] and in assay [2] was under 4.30 each time.
Consider `CCN(c1cc(Cl)cc(C(=O)NCc2c(C)nc3cc[nH]n3c2=O)c1C)[C@H]1CC[C@H](N(C)C)CC1` [Compound 8, 5-chloro-3-(((trans)-4-(dimethylamino)cyclohexyl)(ethyl)amino)-2-methyl-N-((5-methyl-7-oxo-1,7-dihydropyrazolo[1,5-a]pyrimidin-6-yl)methyl)benzamide], for which the pIC50 is 4.70 in assay [1] and 5.24 in assay [2].
In the same order, the values of `CCN(c1cc(Cl)cc(C(=O)NCc2c(C)cc3nc(C)[nH]n3c2=O)c1C)[C@H]1CC[C@H](N(C)C)CC1` [Compound 9, 5-chloro-N-((2,7-dimethyl-5-oxo-3,5-dihydro-[1,2,4]triazolo[1,5-a]pyridin-6-yl)methyl)-3-(((trans)-4-(dimethylamino)cyclohexyl)(ethyl)amino)-2-methylbenzamide] are 4.46 and 4.94.
Take `CCN(c1cc(Cl)cc(C(=O)NCc2cn(C)[nH]c2=O)c1C)[C@H]1CC[C@H](N(C)C)CC1` [Compound 31a, 5-chloro-3-(ethyl((trans)-4-(dimethylamino)cyclohexyl]amino)-2-methyl-N-((1-methyl-3-oxo-2,3-dihydro-1H-pyrazol-4-yl)methyl]benzamide formate]: the pIC50 in assay [1] is 6.30; in assay [2], 6.64.
On to `CCN(c1cc(Cl)cc(C(=O)NCc2c(SC)n(C)[nH]c2=O)c1C)[C@H]1CC[C@H](N(C)C)CC1` [Compound 31b, 5-chloro-3-{ethyl[(trans)-4-(dimethylamino)cyclohexyl]amino}-2-methyl-N-{[1-methyl-5-(methylsulfanyl)-3-oxo-2,3-dihydro-1H-pyrazol-4-yl]methyl}benzamide Formate], for which the values for the pIC50 in assay [1] and in assay [2] were 5.91 and 5.97, respectively.
On to `CCN(c1cc(Cl)cc(C(=O)NCc2c(C)[nH]n(C(C)C)c2=O)c1C)[C@H]1CC[C@H](N(C)C)CC1` [Compound 37, 5-chloro-3-(((trans)-4-(dimethylamino)cyclohexyl)(ethyl)amino)-N-((2-isopropyl-5-methyl-3-oxo-2,3-dihydro-1H-pyrazol-4-yl)methyl)-2-methylbenzamide], for which the pIC50 is 4.81 in assay [1] and 5.57 in assay [2].
In the same order, the values of `CCN(c1cc(Cl)cc(C(=O)NCc2c(C(C)C)[nH]n(C)c2=O)c1C)[C@H]1CC[C@H](N(C)C)CC1` [Compound 39, 5-chloro-3-(((trans)-4-(dimethylamino)cyclohexyl)(ethyl)amino)-N-((5-isopropyl-2-methyl-3-oxo-2,3-dihydro-1H-pyrazol-4-yl)methyl)-2-methylbenzamide] are 5.18 and 5.65.
In the same order, the values of `CCCCc1[nH]n(C)c(=O)c1CNC(=O)c1cc(Cl)cc(N(CC)[C@H]2CC[C@H](N(C)C)CC2)c1C` [Compound 40, N-((5-butyl-2-methyl-3-oxo-2,3-dihydro-1H-pyrazol-4-yl)methyl)-5-chloro-3-(((trans)-4-(dimethylamino)cyclohexyl)(ethyl)amino)-2-methylbenzamide] are 6.16 and 6.78.
Consider `CCN(c1cc(Cl)cc(C(=O)NCc2c(OC)nn3c(C)cc(C)nc23)c1C)[C@H]1CC[C@H](N(C)C)CC1` [Compound 48, 5-chloro-3-(((trans)-4-(dimethylamino)cyclohexyl)(ethyl)amino)-N-((2-methoxy-5,7-dimethylpyrazolo[1,5-a]pyrimidin-3-yl)methyl)-2-methylbenzamide], for which the pIC50 in assay [1] and in assay [2] was under 4.30 in each case.
Turning to `CCN(c1cc(Cl)cc(C(=O)NCc2c(=O)[nH]n3c(C)cc(C)nc23)c1C)[C@H]1CC[C@H](N(C)C)CC1` [Compound 49, 5-chloro-N-((5,7-dimethyl-2-oxo-1,2-dihydropyrazolo[1,5-a]pyrimidin-3-yl)methyl)-3-(((trans)-4-(dimethylamino)cyclohexyl)(ethyl)amino)-2-methylbenzamide], the values for the pIC50 in assay [1] and in assay [2] were 4.98 and 5.29, respectively.
The like results for `CCN(c1cc(Cl)cc(C(=O)NCc2c(OC)nn3cccnc23)c1C)[C@H]1CC[C@H](N(C)C)CC1` [Compound 50, 5-chloro-3-(((trans)-4(dimethylamino)cyclohexyl)(ethyl)amino)-N-((2-methoxypyrazolo[1,5-a]pyrimidin-3-yl)methyl)-2-methylbenzamide] were, in that order, 4.56 and 5.57.
The like results for `CCN(c1cc(-c2ccc(CN3CCOCC3)cc2)cc(C(=O)NCc2c(OC)nn(C)c2C)c1C)[C@H]1CC[C@H](N(C)C)CC1` [Compound 53, 5-(((trans)-4-(dimethylamino)cyclohexyl) (ethyl)amino)-N-((3-methoxy-1,5-dimethyl-1H-pyrazol-4-yl)methyl)-4-methyl-4′-(morpholinomethyl)-[1,1′-biphenyl]-3-carboxamide] were, in that order, 5.66 and 6.20.
In the same order, the values of `CCn1nc(OC)c(CNC(=O)c2cc(Cl)cc(N(CC)[C@H]3CC[C@H](N(C)CCOC)CC3)c2C)c1C` [Compound 64, 5-chloro-3-(ethyl ((trans)-4-((2-methoxyethyl)-(methyl)-amino)-cyclohexyl)amino)-N-((1-ethyl-3-methoxy-5-methyl-1H-pyrazol-4-yl)methyl)-2-methylbenzamide] are 4.76 and 5.35.
On to `CCn1[nH]c(=O)c(CNC(=O)c2cc(Cl)cc(N(CC)[C@H]3CC[C@H](N(C)CCOC)CC3)c2C)c1C` [Compound 65, 5-chloro-3-(ethyl((trans)-4-((2-methoxyethyl)-(methyl)-amino)-cyclohexyl)-amino)-N-((1-ethyl-5-methyl-3-oxo-2,3-dihydro-1H-pyrazol-4-yl)methyl)-2-methylbenzamide], for which the negative-log IC50 (pIC50) is 5.94 in assay [1] and 6.35 in assay [2].
As for `CCN(c1cc(Cl)cc(C(=O)NCc2c(OC)nn(C)c2C)c1C)[C@H]1CC[C@H](N(C)Cc2cccc(OCCOC)c2)CC1` [Compound 68, 5-chloro-3-(ethyl((trans)-4-((3-(2-methoxyethoxy)benzyl)(methyl)amino)cyclohexyl)amino)-N-((3-methoxy-1,5-dimethyl-1H-pyrazol-4-yl)methyl)-2-methylbenzamide], the negative logarithm of the IC50 (pIC50) in assay [1] is 5.59.
